Format in all cases: functional, cell-based
The target in data set [1] is T1, Solute carrier family 22 member 2 (Homo sapiens, UniProt O15244).
T1 sequence (O15244 whole entry): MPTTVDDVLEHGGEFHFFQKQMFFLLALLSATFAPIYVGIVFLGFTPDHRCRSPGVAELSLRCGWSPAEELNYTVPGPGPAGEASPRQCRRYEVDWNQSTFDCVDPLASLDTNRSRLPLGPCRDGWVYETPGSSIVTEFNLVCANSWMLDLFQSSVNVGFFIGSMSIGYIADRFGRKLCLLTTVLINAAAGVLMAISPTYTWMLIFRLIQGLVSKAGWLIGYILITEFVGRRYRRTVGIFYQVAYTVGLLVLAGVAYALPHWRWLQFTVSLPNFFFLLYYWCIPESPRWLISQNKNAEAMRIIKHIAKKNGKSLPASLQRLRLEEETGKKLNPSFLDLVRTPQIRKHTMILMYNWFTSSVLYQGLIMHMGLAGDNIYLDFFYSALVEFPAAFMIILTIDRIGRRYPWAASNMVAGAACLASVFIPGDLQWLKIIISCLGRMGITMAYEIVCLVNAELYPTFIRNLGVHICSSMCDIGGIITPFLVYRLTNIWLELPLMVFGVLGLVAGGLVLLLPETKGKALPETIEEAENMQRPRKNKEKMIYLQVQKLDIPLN
Briefly: TP_TRANSPORTER: uptake in OCT2A-expressing HEK293 cells.

The target in data set [2] is T1, Solute carrier family 22 member 2. Nature of the data set: TP_TRANSPORTER: inhibition of TEA uptake (TEA: 5 uM, MPP+: 1000 uM) in OCT2A-expressing HEK293 cells. As to conditions: hek293, 1000 µM.
The target is the same in data set [3]. Briefly: TP_TRANSPORTER: inhibition of TEA uptake (TEA: 5 uM, N-acetyl procainamide: 1000 uM) in OCT2A-expressing HEK293 cells. As to conditions: hek293, 1000 µM.
The target is the same in data set [4]. Briefly: TP_TRANSPORTER: inhibition of TEA uptake (TEA: 5 uM, N-acetyl procainamide: 1000 uM) in OCT2-expressing HEK293 cells. As to conditions: hek293, 1000 µM.
The target is the same in data set [5]. Nature of the data set: TP_TRANSPORTER: inhibition of TEA uptake (TEA: 5 uM, Amantadine: 100 uM) in OCT2A-expressing HEK293 cells. The note with it: hek293, 100 µM.
The target is the same in data set [6]. Nature of the data set: TP_TRANSPORTER: inhibition of TEA uptake (TEA: 5 uM, Creatinine: 1000 uM) in OCT2A-expressing HEK293 cells. As to conditions: hek293, 1000 µM.
Data set [7] shares this target. Nature of the data set: TP_TRANSPORTER: inhibition of TEA uptake (TEA: 5 uM, Creatinine: 1000 uM) in OCT2-expressing HEK293 cells. As to conditions: hek293, 1000 µM.
For data set [8] the target is unchanged. Briefly: TP_TRANSPORTER: inhibition of TEA uptake (TEA: 5 uM, GPFX: 2500 uM) in OCT2-expressing HEK293 cells. The note with it: hek293, 2500 µM.
The target is the same in data set [9]. Nature of the data set: TP_TRANSPORTER: inhibition of TEA uptake (TEA: 5 uM, GPFX: 2500 uM) in OCT2A-expressing HEK293 cells. As to conditions: hek293, 2500 µM.
The target is the same in data set [10]. Briefly: TP_TRANSPORTER: uptake in OCT2-expressing HEK293 cells.
Data set [11] has the same target. Briefly: TP_TRANSPORTER: inhibition of TEA uptake (TEA: 5 uM, Guanidine: 1000 uM) in OCT2A-expressing HEK293 cells. The note with it: hek293, 1000 µM.
Data set [12] shares this target. Nature of the data set: TP_TRANSPORTER: inhibition of TEA uptake (TEA: 5 uM, Guanidine: 1000 uM) in OCT2-expressing HEK293 cells. As to conditions: hek293, 1000 µM.
For data set [13] the target is unchanged. Briefly: TP_TRANSPORTER: inhibition of TEA uptake (TEA: 5 uM, Imipramine: 1000 uM) in OCT2A-expressing HEK293 cells. The note with it: hek293, 1000 µM.
Data set [14] has the same target. Briefly: TP_TRANSPORTER: inhibition of TEA uptake (TEA: 5 uM, Imipramine: 1000 uM) in OCT2-expressing HEK293 cells. As to conditions: hek293, 1000 µM.
The target is the same in data set [15]. Briefly: TP_TRANSPORTER: inhibition of TEA uptake (TEA: 5 uM, Levofloxacin: 2500 uM) in OCT2A-expressing HEK293 cells. The note with it: hek293, 2500 µM.
Data set [16] has the same target. Briefly: TP_TRANSPORTER: inhibition of TEA uptake (TEA: 5 uM, Levofloxacin: 2500 uM) in OCT2-expressing HEK293 cells. As to conditions: hek293, 2500 µM.
The target is the same in data set [17]. Briefly: TP_TRANSPORTER: inhibition of TEA uptake (TEA: 5 uM, NMN: 1000 uM) in OCT2A-expressing HEK293 cells. The note with it: hek293, 1000 µM.
Data set [18] has the same target. Briefly: TP_TRANSPORTER: inhibition of TEA uptake (TEA: 5 uM, Noradrenaline: 1000 uM) in OCT2A-expressing HEK293 cells. The note with it: hek293, 1000 µM.
For data set [19] the target is unchanged. Nature of the data set: TP_TRANSPORTER: inhibition of TEA uptake (TEA: 5 uM, Noradrenaline: 1000 uM) in OCT2-expressing HEK293 cells. The note with it: hek293, 1000 µM.
Data set [20] has the same target. Nature of the data set: TP_TRANSPORTER: inhibition of TEA uptake (TEA: 5 uM, Procainamide: 1000 uM) in OCT2A-expressing HEK293 cells. As to conditions: hek293, 1000 µM.
The target is the same in data set [21]. Nature of the data set: TP_TRANSPORTER: inhibition of TEA uptake (TEA: 5 uM, Procainamide: 1000 uM) in OCT2-expressing HEK293 cells. As to conditions: hek293, 1000 µM.
For data set [22] the target is unchanged. Nature of the data set: TP_TRANSPORTER: inhibition of TEA uptake (TEA: 5 uM, Serotonin: 1000 uM) in OCT2A-expressing HEK293 cells. The note with it: hek293, 1000 µM.
The target is the same in data set [23]. Nature of the data set: TP_TRANSPORTER: inhibition of TEA uptake (TEA: 5 uM, Serotonin: 1000 uM) in OCT2-expressing HEK293 cells. The note with it: hek293, 1000 µM.

For the molecule `C[n+]1ccc(-c2ccccc2)cc1`, the Activity entry was “substrate [+]” in data set [1] and “inhibitor [(at a rough estimate) 5 % of control]” in data set [2].
Turning to `CCN(CC)CCNC(=O)c1ccc(NC(C)=O)cc1` [ACECAINIDE], the Activity entry in data set [3] was “inhibitor [(at a rough estimate) 15 % of control]”; in data set [4], “is not an inhibitor [-]”.
On to `NC12CC3CC(CC(C3)C1)C2` [AMANTADINE], for which the Activity result in data set [5] is “inhibitor [(at a rough estimate) 5 % of control]”.
With `CN/C(=N/CCSCc1nc[nH]c1C)NC#N` [CIMETIDINE], in data set [1], the Activity result was “is not a substrate [-]”.
For the molecule `CN1CC(=O)NC1=N` [CREATININE], the Activity entry was “inhibitor [(at a rough estimate) 95 % of control]” in data set [6] and “inhibitor [(at a rough estimate) 80 % of control]” in data set [7].
Regarding `Cc1c(F)c(N2CCNC(C)C2)cc2c1c(=O)c(C(=O)O)cn2C1CC1` (centres undefined) [GREPAFLOXACIN], the figures for the Activity entry in data set [8] and in [9] were “inhibitor [(at a rough estimate) 30 % of control]” and “inhibitor [(at a rough estimate) 5 % of control]”, respectively.
Regarding `N=C(N)N` [GUANIDINE], the Activity entry in data set [10] is “substrate [+]”; in data set [1] it was “is not a substrate [-]”; in [11] it was “inhibitor [(at a rough estimate) 80 % of control]”; in [12] it was “inhibitor [(at a rough estimate) 60 % of control]”.
With `CN(C)CCCN1c2ccccc2CCc2ccccc21` [IMIPRAMINE], the figures for the Activity result in data set [13] and in data set [14] were “inhibitor [(at a rough estimate) 5 % of control]” and “inhibitor [(at a rough estimate) 10 % of control]”, respectively.
Take `C[C@H]1COc2c(N3CCN(C)CC3)c(F)cc3c(=O)c(C(=O)O)cn1c23.C[C@H]1COc2c(N3CCN(C)CC3)c(F)cc3c(=O)c(C(=O)O)cn1c23.O` [LEVOFLOXACIN]: the Activity entry in data set [10] is “is not a substrate [-]”; in data set [1], “is not a substrate [-]”; in data set [15], “inhibitor [(at a rough estimate) 25 % of control]”; in data set [16], “is not an inhibitor [-]”.
As for `CNC(=O)c1cccnc1` [NICOTINYL METHYLAMIDE], in data set [17], the Activity result is “inhibitor [(at a rough estimate) 30 % of control]”.
With `NC[C@H](O)c1ccc(O)c(O)c1` [NOREPINEPHRINE], the Activity entry in data set [18] is “is not an inhibitor [-]”; in [19], “inhibitor [(at a rough estimate) 65 % of control]”.
With `CCN(CC)CCNC(=O)c1ccc(N)cc1` [PROCAINAMIDE], the Activity entry is “inhibitor [(at a rough estimate) 15 % of control]” in data set [20] and “is not an inhibitor [-]” in data set [21].
For the molecule `NCCc1c[nH]c2ccc(O)cc12` [SEROTONIN], the Activity entry in data set [22] is “inhibitor [(at a rough estimate) 35 % of control]”; in data set [23] it was “inhibitor [(at a rough estimate) 55 % of control]”.
As to `Cc1cn([C@H]2C[C@H](N=[N+]=[N-])[C@@H](CO)O2)c(=O)[nH]c1=O` [ZIDOVUDINE], the Activity result in data set [10] and in data set [1] was “is not a substrate [-]” each time.
